The source of these data is patent US12454530B2, “Amido cyclohexane acid derivatives as LPA receptor inhibitors” (CHIESI FARMACEUTICI S.P.A., priority 2020, dated 2025).

Data set [1] concerns the target human recombinant LPA1 expressed in CHO cells (Homo sapiens (Human), UniProt Q92633). Kind of data set: LPA1 antagonist FLIPR calcium assay in CHO-hLPA1 cells. The data set is classed as cell-based. The note with it: range of activity; CHO-hLPA1, LPA EC80, Ca2+ mobilization; read-out: LPA1 IC50. In outline:
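CHO cells expressing human LPA1 loaded with Cal-520 AM (5 μM, with 2.5 mM probenecid) 30 min at 37 °C. Baseline-subtracted peak fluorescence on FLIPR converted to % inhibition; pIC50 from four-parameter logistic fit.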

The next data set concerns the target BSEP (Homo sapiens (Human), UniProt O95342). Kind of data set: BSEP inhibition: biliary clearance of Taurocolic Acid in sandwich-cultured human hepatocytes. In kind it is in vitro ADME. The note with it: sandwich-cultured cryopreserved human hepatocytes, probe Taurocolic Acid (TCA); 50 μM test compound, 10 μM TCA, human hepatocytes sandwich configuration. In outline:
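Cryopreserved human hepatocytes were sandwich-cultured between collagen layers for 5 days, then incubated for 10 min at 37 °C in HBSS+ with 10 μM taurocholic acid, with or without 50 μM test compound. Bile content was released with Ca2+/Mg2+-free HBSS and quantified by HPLC-MS/MS. Inhibition is the percent reduction in TCA biliary clearance.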

Data set [2] in a line: Permeability on Caco-2 cells monolayers. The data set is classed as in vitro ADME. The note with it: human, with Elacridar 10 µM (PgP inhibitor), Papp A>B with PgP inhibitor Elacridar, 10 μM compound, read-out: Passive Permeability. The method, then: Even more advantageously, the compounds of formula (I) of the present invention are also endowed with a good permeability profile that, in its turn, can ensure a suitable bioavailability for an oral administration. The permeability was assessed in human Caco 2 cell line, an in vitro model that mimic human gastrointestinal barrier and so useful to predic oral absorption.
The permeability of the compounds of the present invention was evaluated performing the assay on Caco-2 cells monolayers (human colon adenocarcinoma immortalized cell) by measuring the transport of compound (absorption and secretion) in both directions: apical to basolateral direction (A>B) and basolateral to apical (B>A) with and without PgP inhibitor (Elacridar).
The cells, purched from ReadyCell in 96 well format (Cod. KRECE-CCR50), were cultured by the supplier for 21 day on transwell supports in DMEM 1 g/L glucose culture medium supplemented with Fetal Bovin Sierum (10%), Glutamine 200 mM (1%) and Penicillin 10000 U/ml-10 mg/ml Streptomycin (1%).
On day 21 of colture, cell monolayers integrity was verified by measuring the trans-epithelial electric resistance (TEER) using the EVOM equipment (Endohm, WPI, Germany) and studying the apparent permeability (Papp) of reference compounds (Sulpiride and Metoprolol). Furthermore, as a control, the Talinolol 10 uM (Pgp efflux substrate) with and without Elacridar in both directions was used.
The sample solution was prepared dissolving test compound in DMSO at the concentration of 10 mM and then diluted in the Assay Buffer (Hank's Balance Salt Solution) warmed at 37° C. before use, to give the 10 μM Compound working solution with and without 10 μM Elacridar. These working solutions were added to donor compartment (apical for A>B direction and basolateral for B>A direction) and Assay Buffer (Hank's Balance Salt Solution) to the receiver compartment (basolateral for A>B direction and apical for B>A direction). The plate was incubated at 37° C. for 120 min, all incubation were conducted in triplicates. At the end of incubation, samples from donor and receiver compartments were collected for HPLC-MS/MS analyses.
The permeability coefficients (Papp) in both directions: apical to basolateral (A>B) and basolateral to apical (B>A) with and without PgP inhibitor (Elacridar) was calculated in nm/sec, using the following equation:
[formula] • where: • Cr=measured concentration in the receiver well at the time t (expressed as IS ratio) • Vr=volume of the receiver well (ml) • t=time (sec) • A=membrane surface area (cm^2) • C0=initial donor concentration • Passive Papp is considered Papp A>B with PgP inhibitor Elacridar.

Chain of human recombinant LPA1 expressed in CHO cells (Q92633 whole entry): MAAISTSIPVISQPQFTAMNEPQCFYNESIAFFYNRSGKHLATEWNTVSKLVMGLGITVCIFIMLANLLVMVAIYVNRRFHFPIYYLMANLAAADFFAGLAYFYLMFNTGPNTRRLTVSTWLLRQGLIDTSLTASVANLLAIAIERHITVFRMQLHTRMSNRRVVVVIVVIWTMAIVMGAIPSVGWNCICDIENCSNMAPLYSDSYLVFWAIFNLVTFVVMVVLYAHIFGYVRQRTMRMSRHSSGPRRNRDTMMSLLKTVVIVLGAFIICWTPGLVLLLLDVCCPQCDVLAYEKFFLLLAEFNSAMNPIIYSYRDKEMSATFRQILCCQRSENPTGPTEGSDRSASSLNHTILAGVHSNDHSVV
Chain of BSEP (O95342 whole entry): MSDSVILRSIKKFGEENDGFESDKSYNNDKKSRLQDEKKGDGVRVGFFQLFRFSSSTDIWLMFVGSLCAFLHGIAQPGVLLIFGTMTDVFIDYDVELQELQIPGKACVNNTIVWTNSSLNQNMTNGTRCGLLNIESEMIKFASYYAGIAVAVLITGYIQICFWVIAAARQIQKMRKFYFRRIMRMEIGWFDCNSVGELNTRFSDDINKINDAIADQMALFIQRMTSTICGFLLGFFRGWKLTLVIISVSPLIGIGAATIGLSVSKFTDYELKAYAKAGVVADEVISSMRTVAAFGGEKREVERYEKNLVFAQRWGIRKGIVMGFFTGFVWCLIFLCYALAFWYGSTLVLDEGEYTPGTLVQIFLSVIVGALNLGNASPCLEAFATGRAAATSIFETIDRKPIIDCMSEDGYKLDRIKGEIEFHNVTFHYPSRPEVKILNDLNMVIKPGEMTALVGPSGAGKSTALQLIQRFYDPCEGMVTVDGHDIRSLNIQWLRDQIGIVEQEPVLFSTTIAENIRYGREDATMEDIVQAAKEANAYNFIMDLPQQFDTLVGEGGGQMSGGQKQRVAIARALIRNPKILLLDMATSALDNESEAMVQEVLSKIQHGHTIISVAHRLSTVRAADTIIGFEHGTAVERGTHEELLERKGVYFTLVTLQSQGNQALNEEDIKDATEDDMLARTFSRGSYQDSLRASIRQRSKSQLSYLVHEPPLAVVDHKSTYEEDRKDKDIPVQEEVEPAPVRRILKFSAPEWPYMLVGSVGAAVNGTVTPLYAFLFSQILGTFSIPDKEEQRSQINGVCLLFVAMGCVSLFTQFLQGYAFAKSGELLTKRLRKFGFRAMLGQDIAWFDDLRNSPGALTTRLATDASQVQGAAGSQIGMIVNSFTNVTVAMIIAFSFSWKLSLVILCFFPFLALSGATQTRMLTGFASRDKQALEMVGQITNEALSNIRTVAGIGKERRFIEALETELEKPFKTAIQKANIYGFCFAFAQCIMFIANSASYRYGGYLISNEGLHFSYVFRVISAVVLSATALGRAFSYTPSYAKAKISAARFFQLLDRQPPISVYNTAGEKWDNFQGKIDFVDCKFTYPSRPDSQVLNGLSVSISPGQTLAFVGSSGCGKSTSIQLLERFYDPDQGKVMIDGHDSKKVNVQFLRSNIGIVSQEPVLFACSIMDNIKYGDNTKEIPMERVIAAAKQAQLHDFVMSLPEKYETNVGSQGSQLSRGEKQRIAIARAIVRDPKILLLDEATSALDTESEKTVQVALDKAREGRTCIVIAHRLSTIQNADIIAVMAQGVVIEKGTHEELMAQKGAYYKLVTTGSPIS

By IC50 is commonly meant the concentration that inhibits the measured activity by half. In general, inhibition refers to the relative decrease from the control value, in per cent. A lower inhibition goes with little suppression. On to `Cc1nc(-c2onc(C)c2NC(=O)O[C@H](C)c2ccccc2C(F)(F)F)ccc1NC(=O)[C@H]1CCCC[C@@H]1C(=O)O` [Example 25, (1S,2S)-2-((2-methyl-6-(3-methyl-4-((((R)-1-(2-(trifluoromethyl)phenyl)ethoxy)carbonyl)amino)isoxazol-5-yl)pyridin-3-yl)carbamoy1)cyclohexane-1-carboxylic acid], for which the half-maximal inhibitory concentration (IC50) in data set [1] is 50 to 250 nM. For the same compound, the inhibition at 10 min, 50 μM against BSEP was at most 50%. In data set [2], the Papp at 120 min, 10 µM was at least 1.5 ×10⁻⁶ cm/s.

Take `Cc1nc(-c2nnn(C)c2NC(=O)O[C@H](C)C2CCCC2)ccc1NC(=O)[C@H]1CCCC[C@@H]1C(=O)O` [Example 46, (1S,2S)-2-((6-(5-((((R)-1-cyclopentylethoxy)carbonyl)amino)-1-methyl-1H-1,2,3-triazol-4-yl)-2-methylpyridin-3-yl)carbamoyl)cyclohexane-1-carboxylic acid]: the concentration for half-maximal inhibition (IC50) in data set [1] lay in the range of 50 to 250 nM. This compound also returned an inhibition at 10 min, 50 μM on BSEP of at most 50%. The Papp at 120 min, 10 µM in data set [2] is at least 1.5 ×10⁻⁶ cm/s.

Regarding `Cc1noc(-c2ccc(NC(=O)[C@H]3CCCC[C@@H]3C(=O)O)cn2)c1NC(=O)OCc1ccccc1Cl` [Example 35, (1S,2S)-2-((6-(4-((((2-chlorobenzyl)oxy)carbonyl)amino)-3-methylisoxazol-5-yl)pyridin-3-yl)carbamoyl)cyclohexane-1-carboxylic acid], in data set [1], the IC50 is 50 to 250 nM. Also, the inhibition at 10 min, 50 μM against BSEP was at most 50%. Moreover, in data set [2], the Papp at 120 min, 10 µM was at least 1.5 ×10⁻⁶ cm/s.

Take `Cc1nc(-c2cnn(C)c2NC(=O)O[C@H](C)c2ccccc2F)ccc1NC(=O)[C@H]1CCCC[C@@H]1C(=O)O` [Example 50, (1S,2S)-2-((6-(5-((((R)-1-(2-fluorophenyl)ethoxy)carbonyl)amino)-1-methyl-1H-pyrazol-4-yl)-2-methylpyridin-3-yl)carbamoyl)cyclohexane-1-carboxylic acid]: in data set [1], the concentration for half-maximal inhibition (IC50) lay within 50 to 250 nM. The compound further yielded an inhibition at 10 min, 50 μM against BSEP of at most 50%. In addition, the Papp at 120 min, 10 µM in data set [2] was at least 1.5 ×10⁻⁶ cm/s.

On to `COc1ccccc1[C@@H](C)OC(=O)Nc1c(C)noc1-c1ccc(NC(=O)[C@H]2CCCC[C@@H]2C(=O)O)c(C)n1` [Example 38, (1S,2S)-2-((6-(4-((((R)-1-(2-methoxyphenyl)ethoxy)carbonyl)amino)-3-methylisoxazol-5-yl)-2-methylpyridin-3-yl)carbamoyl)cyclohexane-1-carboxylic acid], for which the IC50 in data set [1] was 50 to 250 nM. This compound also registered an inhibition at 10 min, 50 μM on BSEP of at most 50%. The Papp at 120 min, 10 µM in data set [2] was at least 1.5 ×10⁻⁶ cm/s.

For `C[C@@H](OC(=O)Nc1ccsc1-c1ccc(NC(=O)C2CCCCC2C(=O)O)cc1)c1ccccc1Cl` (single isomer, unassigned) [Example 7], the IC50 in data set [1] was under 50 nM. This compound gave an inhibition at 10 min, 50 μM on BSEP of at most 50%. In addition, the Papp at 120 min, 10 µM in data set [2] is at least 1.5 ×10⁻⁶ cm/s.

On to `Cc1noc(-c2ccc(NC(=O)[C@H]3CCCC[C@@H]3C(=O)O)cn2)c1NC(=O)O[C@H](C)c1ccccc1C(F)(F)F` [Example 36, (1S,2S)-2-((6-(3-methyl-4-((((R)-1-(2-(trifluoromethyl)phenyl)ethoxy)carbonyl)amino)isoxazol-5-yl)pyridin-3-yl)carbamoyl)cyclohexane-1-carboxylic acid], for which the IC50 in data set [1] was in the range of 50 to 250 nM. The inhibition at 10 min, 50 μM on BSEP was at most 50%. In addition, the Papp at 120 min, 10 µM in data set [2] was at least 1.5 ×10⁻⁶ cm/s.

For `Cc1noc(-c2ccc(NC(=O)C3CCCCC3C(=O)O)cn2)c1NC(=O)O[C@H](C)c1ccccc1` (stereo in doubt) [Example 40, Cis-2-((6-(3-methyl-4-((((R)-1-phenylethoxy)carbonyl)amino)isoxazol-5-y1)pyridin-3-yl)carbamoyl)cyclohexane-1-carboxylic acid], the concentration for half-maximal inhibition (IC50) in data set [1] was in the range of 50 to 250 nM. Moreover, the inhibition at 10 min, 50 μM at BSEP was at most 50%. Besides, the Papp at 120 min, 10 µM in data set [2] is at least 1.5 ×10⁻⁶ cm/s.

Consider `Cc1noc(-c2ccc(NC(=O)[C@H]3CCCC[C@@H]3C(=O)O)cn2)c1NC(=O)O[C@H](C)c1ccccc1F` [Example 34, (1S,2S)-2-((6-(4-((((R)-1-(2-fluorophenyl)ethoxy)carbonyl)amino)-3-methylisoxazol-5-yl)pyridin-3-yl)carbamoyl)cyclohexane-1-carboxylic acid], for which, in data set [1], the IC50 was under 50 nM. Besides, the inhibition at 10 min, 50 μM against BSEP is at most 50%. The Papp at 120 min, 10 µM in data set [2] was at least 1.5 ×10⁻⁶ cm/s.

With `Cc1nc(-c2onc(C)c2NC(=O)O[C@H](C)c2ccccc2F)ccc1NC(=O)[C@H]1CCCC[C@@H]1C(=O)O` [Example 24, (1S,2S)-2-((6-(4-((((R)-1-(2-fluorophenyl)ethoxy)carbonyl)amino)-3-methylisoxazol-5-yl)-2-methylpyridin-3-yl)carbamoyl)cyclohexane-1-carboxylic acid], the concentration for half-maximal inhibition (IC50) in data set [1] is under 50 nM. The inhibition at 10 min, 50 μM on BSEP is at most 50%. For the same compound, in data set [2], the Papp at 120 min, 10 µM was at least 1.5 ×10⁻⁶ cm/s.
